The text below walks through data of patent US20250197372A1 (priority 2020, published 2025).

Common to all, as to assay type: biochemical
In test [1] the target is T1, recombinant human GBA (beta-glucocerebrosidase) (Homo sapiens, UniProt P04062).
T1 sequence (P04062 40-536): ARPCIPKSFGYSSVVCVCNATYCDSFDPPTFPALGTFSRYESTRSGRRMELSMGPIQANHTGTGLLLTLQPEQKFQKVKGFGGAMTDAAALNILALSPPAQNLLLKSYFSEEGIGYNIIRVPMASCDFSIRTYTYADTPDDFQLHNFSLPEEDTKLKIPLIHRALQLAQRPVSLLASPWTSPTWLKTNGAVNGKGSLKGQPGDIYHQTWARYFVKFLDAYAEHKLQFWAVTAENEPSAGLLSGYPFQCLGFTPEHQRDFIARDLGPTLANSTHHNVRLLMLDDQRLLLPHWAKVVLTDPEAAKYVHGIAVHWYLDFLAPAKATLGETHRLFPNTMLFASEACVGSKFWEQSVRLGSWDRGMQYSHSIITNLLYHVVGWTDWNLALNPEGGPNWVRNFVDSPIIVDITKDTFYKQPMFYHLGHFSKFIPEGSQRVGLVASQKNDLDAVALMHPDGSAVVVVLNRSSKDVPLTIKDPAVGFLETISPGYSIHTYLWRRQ
As to the kind of experiment: Beta-glucocerebrosidase (GBA, glucosylceramidase) assay (4-methylumbelliferyl-beta-D-pyranoside substrate, fluorescence). In outline: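 IC50 by four-parameter fit of percent inhibition, with product fluorescence (365/440 nm) read after a glycine/NaOH pH 10 stop. Compound and commercial recombinant human enzyme were incubated 60 min at 37 °C before a further 60 min at 37 °C with 4-methylumbelliferyl-beta-D-pyranoside substrate.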

Test [2] concerns the target T2, recombinant alpha-glucosidase II (murine full-length glucosidase II, alpha and beta subunits, Glu 2) (Mus musculus, UniProt Q8BHN3).
T2 construct: made in house; host or cells: HEK-293T cells transduced with BacMam viruses (75% alpha, 25% beta); protein harvested from culture supernatant
As to the kind of experiment: Alpha-glucosidase II assay (4-methylumbelliferyl-alpha-D-pyranoside substrate, fluorescence). As to conditions: Glucosidase 2; read-out: Glu2 IC50.

Test [3] deals with rat maltase (partially purified alpha-glucosidase from intestinal rat powder). As to the kind of experiment: Intestinal alpha-glucosidase assay, maltose substrate (Glucose GO Kit). The method in brief:
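Enzyme from intestinal rat powder, partially purified, is exposed to compound for 60 min at 37 °C. Disaccharide substrate (maltose or sucrose respectively) then reacts 30 min at 37 °C. Heat-stopped samples are assayed for glucose, and percent inhibition versus concentration gives IC50 via 4-PL.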

For test [4], the target named is recombinant human GAA (acid alpha-glucosidase) (Homo sapiens, UniProt P10253). Nature of the test: Acid alpha-glucosidase (GAA) assay (4-methylumbelliferyl-alpha-D-pyranoside substrate, fluorescence). In outline: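 IC50 from 4-PL curve fit of percent inhibition, based on fluorescence (365/440 nm) of released methylumbelliferone relative to uninhibited enzyme. Compound dilutions and human GAA incubated 60 min, 37 °C, before 20 min substrate reaction at 37 °C, quenched at pH 10.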

The target of test [5] is rat sucrase (partially purified alpha-glucosidase from intestinal rat powder) (Rattus norvegicus, UniProt P23739). Nature of the test: Intestinal alpha-glucosidase assay, sucrose substrate (Glucose GO Kit). In outline:
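First step: 60 min, 37 °C, compound with partially purified rat intestinal alpha-glucosidase. Next, maltose or sucrose for 30 min at 37 °C, ended at 90 °C for 5 min. Glucose quantified enzymatically; concentration–inhibition data fitted 4-PL for IC50.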

T2 sequence (O08795 15-521): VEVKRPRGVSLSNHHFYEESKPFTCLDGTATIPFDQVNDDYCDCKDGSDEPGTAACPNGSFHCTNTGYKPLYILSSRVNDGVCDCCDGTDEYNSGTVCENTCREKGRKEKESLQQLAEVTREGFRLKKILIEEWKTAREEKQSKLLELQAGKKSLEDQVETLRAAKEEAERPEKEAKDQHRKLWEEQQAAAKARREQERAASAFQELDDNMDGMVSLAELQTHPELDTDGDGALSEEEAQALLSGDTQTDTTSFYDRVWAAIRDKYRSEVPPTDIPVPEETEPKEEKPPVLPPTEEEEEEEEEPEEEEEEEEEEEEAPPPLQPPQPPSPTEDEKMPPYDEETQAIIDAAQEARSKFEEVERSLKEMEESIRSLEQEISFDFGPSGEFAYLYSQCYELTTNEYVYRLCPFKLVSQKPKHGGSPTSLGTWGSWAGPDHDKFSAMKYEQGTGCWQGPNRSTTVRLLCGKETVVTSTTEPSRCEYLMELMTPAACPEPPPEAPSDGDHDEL
T2 sequence (Q8BHN3 33-944): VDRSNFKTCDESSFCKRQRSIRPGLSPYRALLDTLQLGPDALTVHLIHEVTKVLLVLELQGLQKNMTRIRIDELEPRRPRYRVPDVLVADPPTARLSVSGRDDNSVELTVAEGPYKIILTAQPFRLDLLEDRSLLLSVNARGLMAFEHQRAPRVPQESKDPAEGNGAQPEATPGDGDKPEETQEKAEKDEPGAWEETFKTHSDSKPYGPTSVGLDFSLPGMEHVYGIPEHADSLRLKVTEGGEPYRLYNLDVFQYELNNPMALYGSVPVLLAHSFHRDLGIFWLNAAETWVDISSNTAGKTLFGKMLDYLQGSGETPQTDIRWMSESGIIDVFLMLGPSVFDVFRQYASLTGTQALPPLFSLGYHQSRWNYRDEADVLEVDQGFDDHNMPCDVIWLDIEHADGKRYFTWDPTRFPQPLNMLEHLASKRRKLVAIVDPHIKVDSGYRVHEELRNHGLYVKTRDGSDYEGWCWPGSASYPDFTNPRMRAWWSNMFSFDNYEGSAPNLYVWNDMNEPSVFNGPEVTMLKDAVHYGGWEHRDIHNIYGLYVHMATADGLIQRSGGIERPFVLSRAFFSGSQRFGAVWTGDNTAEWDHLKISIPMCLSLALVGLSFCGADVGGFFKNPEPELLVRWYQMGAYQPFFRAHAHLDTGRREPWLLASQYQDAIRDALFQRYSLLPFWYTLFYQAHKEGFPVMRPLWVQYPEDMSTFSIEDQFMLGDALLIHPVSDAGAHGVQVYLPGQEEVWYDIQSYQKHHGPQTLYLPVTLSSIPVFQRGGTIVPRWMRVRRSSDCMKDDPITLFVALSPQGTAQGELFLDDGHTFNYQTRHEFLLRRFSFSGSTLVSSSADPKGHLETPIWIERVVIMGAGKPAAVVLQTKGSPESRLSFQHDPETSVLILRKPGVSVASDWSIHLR
Sequence of rat sucrase (partially purified alpha-glucosidase from intestinal rat powder) (P23739 whole entry): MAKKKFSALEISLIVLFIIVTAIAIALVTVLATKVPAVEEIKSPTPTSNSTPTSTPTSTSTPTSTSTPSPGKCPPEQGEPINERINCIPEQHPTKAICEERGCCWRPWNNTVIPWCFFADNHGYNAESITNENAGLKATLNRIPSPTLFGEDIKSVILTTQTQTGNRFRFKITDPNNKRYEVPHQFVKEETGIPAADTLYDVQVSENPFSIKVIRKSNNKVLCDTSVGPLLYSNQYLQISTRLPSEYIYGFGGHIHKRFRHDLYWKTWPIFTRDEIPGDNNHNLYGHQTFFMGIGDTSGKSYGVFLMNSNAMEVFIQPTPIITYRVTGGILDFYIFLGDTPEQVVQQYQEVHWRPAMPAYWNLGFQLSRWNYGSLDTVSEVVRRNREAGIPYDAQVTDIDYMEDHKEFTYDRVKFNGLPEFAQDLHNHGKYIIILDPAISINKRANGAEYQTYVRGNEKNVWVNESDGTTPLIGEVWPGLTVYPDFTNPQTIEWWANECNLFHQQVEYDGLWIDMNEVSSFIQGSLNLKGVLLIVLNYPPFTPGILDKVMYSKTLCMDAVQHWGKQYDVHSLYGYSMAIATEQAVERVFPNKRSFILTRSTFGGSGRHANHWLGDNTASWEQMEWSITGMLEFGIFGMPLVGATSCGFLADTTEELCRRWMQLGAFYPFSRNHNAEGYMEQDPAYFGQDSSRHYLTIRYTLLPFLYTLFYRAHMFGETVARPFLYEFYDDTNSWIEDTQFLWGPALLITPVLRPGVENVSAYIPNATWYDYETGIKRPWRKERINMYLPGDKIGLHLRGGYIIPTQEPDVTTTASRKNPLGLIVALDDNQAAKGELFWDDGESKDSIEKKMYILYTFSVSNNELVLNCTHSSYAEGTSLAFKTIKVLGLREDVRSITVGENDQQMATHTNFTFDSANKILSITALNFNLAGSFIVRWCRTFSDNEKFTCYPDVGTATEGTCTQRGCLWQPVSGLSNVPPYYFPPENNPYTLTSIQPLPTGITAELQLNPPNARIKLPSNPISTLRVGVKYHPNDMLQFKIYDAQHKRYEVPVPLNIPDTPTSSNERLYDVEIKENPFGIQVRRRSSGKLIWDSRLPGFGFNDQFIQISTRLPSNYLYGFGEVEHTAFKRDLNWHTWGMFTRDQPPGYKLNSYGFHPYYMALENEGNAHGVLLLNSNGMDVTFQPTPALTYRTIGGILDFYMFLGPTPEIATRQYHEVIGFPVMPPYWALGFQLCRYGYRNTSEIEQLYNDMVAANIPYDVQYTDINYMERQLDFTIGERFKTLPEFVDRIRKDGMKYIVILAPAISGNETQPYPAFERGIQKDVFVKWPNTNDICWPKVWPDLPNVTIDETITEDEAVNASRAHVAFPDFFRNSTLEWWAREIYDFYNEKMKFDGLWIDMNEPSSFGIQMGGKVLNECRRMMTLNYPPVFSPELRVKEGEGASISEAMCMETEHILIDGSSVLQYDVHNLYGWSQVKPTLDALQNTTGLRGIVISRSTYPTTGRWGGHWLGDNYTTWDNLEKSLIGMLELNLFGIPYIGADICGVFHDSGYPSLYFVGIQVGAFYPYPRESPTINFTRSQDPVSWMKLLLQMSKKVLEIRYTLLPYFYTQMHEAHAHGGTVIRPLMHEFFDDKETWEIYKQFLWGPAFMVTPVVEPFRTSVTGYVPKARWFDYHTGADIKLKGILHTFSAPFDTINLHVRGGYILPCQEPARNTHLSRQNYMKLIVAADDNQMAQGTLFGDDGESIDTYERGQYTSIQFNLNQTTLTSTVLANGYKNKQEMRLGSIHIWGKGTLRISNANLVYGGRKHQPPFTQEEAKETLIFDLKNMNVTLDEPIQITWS

Usually IC50 stands for the point on the concentration scale where inhibition reaches its midpoint. Take `[N-]=[N+]=Nc1ccc(NCC[C@H]2CC[C@H](CCN3C[C@H](O)[C@@H](O)[C@H](O)[C@H]3CO)CC2)c([N+](=O)[O-])c1` [Compound 1107, (2R,3R,4R,5S)-2-(hydroxymethyl)-1-{2-[(1r,4r)-4-{2-[(4-azido-2-nitrophenyl)amino]ethyl}cyclohexyl]ethyl}piperidine-3,4,5-triol]: the IC50 in test [1] was found to be 362 nM; in test [2], 41 nM; in test [3], 249 nM; in test [4], 3190 nM; in test [5], 576 nM.

As to `O=[N+]([O-])c1cc(CN2CCCO2)ccc1NCCc1ccc(CCN2C[C@H](O)[C@@H](O)[C@H](O)[C@H]2CO)cc1` [Compound 1108, (2R,3R,4R,5S)-2-(hydroxymethyl)-1-(2-{4-[2-({2-nitro-4-[(1,2-oxazolidin-2-yl)methyl]phenyl}amino)ethyl]phenyl}ethyl)piperidine-3,4,5-triol], the IC50 worked out at 6000 nM in test [1]; 7 nM in test [2]; 98 nM in test [3]; 311 nM in test [4]; 908 nM in test [5].

Consider `O=[N+]([O-])c1cc(-c2cccnn2)ccc1NCCc1ccc(CCN2C[C@H](O)[C@@H](O)[C@H](O)[C@H]2CO)cc1` [Compound 1109, (2R,3R,4R,5S)-2-(hydroxymethyl)-1-{2-[4-(2-{[2-nitro-4-(pyridazin-3-yl)phenyl]amino}ethyl)phenyl]ethyl}piperidine-3,4,5-triol], for which the IC50 is 6550 nM in test [1]; < 1 nM in test [2]; 1 nM in test [3]; 3 nM in test [4]; 446 nM in test [5].

`O=[N+]([O-])c1cc(-c2ccncc2)ccc1NCCc1ccc(CCN2C[C@H](O)[C@@H](O)[C@H](O)[C@H]2CO)cc1` [Compound 1110, (2R,3R,4R,5S)-2-(hydroxymethyl)-1-{2-[4-(2-{[2-nitro-4-(pyridin-4-yl)phenyl]amino}ethyl)phenyl]ethyl}piperidine-3,4,5-triol]: the IC50 in test [1] is 48 nM; in test [2], < 1 nM; in test [3] it was < 1 nM; in test [4], 7 nM; in test [5], 63 nM.

With `O=[N+]([O-])c1cc(-c2ncccn2)ccc1NCCc1ccc(CCN2C[C@H](O)[C@@H](O)[C@H](O)[C@H]2CO)cc1` [Compound 1111, (2R,3R,4R,5S)-2-(hydroxymethyl)-1-{2-[4-(2-{[2-nitro-4-(pyrimidin-2-yl)phenyl]amino}ethyl)phenyl]ethyl}piperidine-3,4,5-triol], the IC50 in test [1] is 1790 nM; in test [2] it was 10 nM; in test [3] it was < 1 nM; in test [4], 20 nM; in test [5], 773 nM.

Turning to `O=[N+]([O-])c1cc(-c2ncco2)ccc1NCCc1ccc(CCN2C[C@H](O)[C@@H](O)[C@H](O)[C@H]2CO)cc1` [Compound 1112, (2R,3R,4R,5S)-2-(hydroxymethyl)-1-{2-[4-(2-{[2-nitro-4-(1,3-oxazol-2-yl)phenyl]amino}ethyl)phenyl]ethyl}piperidine-3,4,5-triol], the IC50 came out at 4990 nM in test [1]; 101 nM in test [2]; 1 nM in test [3]; 105 nM in test [4]; 915 nM in test [5].

As for `O=S(=O)(Nc1cc(NCCCCCCN2C[C@H](O)[C@@H](O)[C@H](O)[C@H]2CO)cc(-c2ncccn2)c1)C1CC1` [Compound 1114, N-[3-(pyrimidin-2-yl)-5-({6-[(2R,3R,4R,5S)-3,4,5-trihydroxy-2-(hydroxymethyl)piperidin-1-yl]hexyl}amino)phenyl]cyclopropanesulfonamide], the IC50 in test [1] is 5140 nM; in test [2], 3 nM; in test [3] it was 5 nM; in test [4], 16 nM; in test [5], 52 nM.
